Experiments:
full-length human RORγt = target: T1, full-length human RORγt (Homo sapiens, UniProt P51449); test: RORγt (full-length human) Reporter Assay, Conditions A; type: cell-based; conditions: for IC50: HEK293T cells, GAL4-DBD-RORγt, luciferase, read-out: RORγt (FL) Reporter Assay A, IC50; for inhibition at 6 µM: read-out: RORγt (FL) Reporter Assay A, % inhibition @ 6 μM, 6 μM compound
T1 construct: expressed in transfected cells; host or cells: HEK293T, transiently transfected with pCMV-BD-ROR
T1 sequence (P51449 1-497 isoform P51449-2): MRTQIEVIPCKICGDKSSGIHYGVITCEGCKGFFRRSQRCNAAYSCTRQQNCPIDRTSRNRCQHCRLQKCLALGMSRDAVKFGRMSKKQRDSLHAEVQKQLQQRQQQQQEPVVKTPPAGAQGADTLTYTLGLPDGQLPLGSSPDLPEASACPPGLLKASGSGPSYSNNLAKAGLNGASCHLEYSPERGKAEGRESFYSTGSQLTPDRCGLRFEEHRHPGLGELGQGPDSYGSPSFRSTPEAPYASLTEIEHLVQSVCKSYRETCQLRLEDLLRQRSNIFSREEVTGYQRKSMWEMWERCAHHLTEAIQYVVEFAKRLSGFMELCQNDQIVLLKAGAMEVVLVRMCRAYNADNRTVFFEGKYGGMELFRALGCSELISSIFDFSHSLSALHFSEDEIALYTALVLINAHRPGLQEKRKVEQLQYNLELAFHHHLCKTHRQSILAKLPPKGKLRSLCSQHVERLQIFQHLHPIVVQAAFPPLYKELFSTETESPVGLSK
Method: After overnight (16 to 20 hours) incubation, media were removed and cells were lysed with 20 μL 1× Passive Lysis Buffer (Promega) for 10-15 minutes. Luminescence was measured using a BMG LUMIstar OPTIMA plate reader, after addition of 75 μL/well firefly luciferase buffer, followed by 75 μL/well Renilla luciferase buffer. To calculate the effect of compounds on RORγt activity, firefly values were normalized against values of DMSO only and values of reference compound at saturating concentration, then further normalized against Renilla signals. IC50s were generated by plotting final Renilla normalized data against compound concentration and percent inhibition was calculated against DMSO control.

[1] = target: T2, human RORγt ligand binding domain (RORγt LBD) (Homo sapiens, UniProt P51449); test: RORγt ThermoFluor assay; conditions: estimated from thermal shift concentration response
T2 construct: His-tag (N); TurboTEV protease cleavage site (ENLYFQG) (N); made in house; host or cells: E. coli (pHIS1, a modified pET expression vector)
T2 sequence (P51449 with tags, fused parts or gaps): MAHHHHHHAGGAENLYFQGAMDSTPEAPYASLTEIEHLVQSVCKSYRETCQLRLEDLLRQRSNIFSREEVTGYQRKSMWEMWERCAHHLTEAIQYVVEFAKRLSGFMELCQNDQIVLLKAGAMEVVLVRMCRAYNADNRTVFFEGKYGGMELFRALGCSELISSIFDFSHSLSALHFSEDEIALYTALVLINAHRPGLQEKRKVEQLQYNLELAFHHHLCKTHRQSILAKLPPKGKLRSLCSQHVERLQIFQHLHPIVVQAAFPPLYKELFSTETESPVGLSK
Method: This approach is applicable to a wide variety of systems, and rigorous in theoretical interpretation through quantitation of equilibrium binding constants (KD).
The shift in the melting point described as a ΔTm is proportional to the concentration and affinity of the ligand.
Protein and compound solutions are dispensed into black 384-well polypropylene PCR microplates (Abgene) and overlayed with silicone oil (1 μL, Fluka, type DC 200) to prevent evaporation.
Bar-coded assay plates are robotically loaded onto a thermostatically controlled PCR-type thermal block and then heated at a typical ramp-rate of 1° C./min for all experiments.
Fluorescence was measured by continuous illumination with UV light (Hamamatsu LC6) supplied via fiber optic and filtered through a band-pass filter (380-400 nm; >6 OD cutoff). Fluorescence emission of the entire 384-well plate was detected by measuring light intensity using a CCD camera (Sensys, Roper Scientific) filtered to detect 500±25 nm, resulting in simultaneous and independent readings of all 384 wells. Images were collected at each temperature, and the sum of the pixel intensity in a given area of the assay plate was recorded versus temperature. Reference wells contained RORγt without compounds, and the assay conditions were as follows: • 0.065 mg/mL RORγt • 60 μM 1,8-ANS • 100 mM Hepes, pH 7.0 • 10 mM NaCl • 2.5 mM GSH • 0.002% Tween-20
Project compounds were arranged in a pre-dosed mother plate (Greiner Bio-one) wherein compounds are serially diluted in 100% DMSO by 1:2 from a high concentration of 10 mM over 12 columns within a series (column 12 is a reference well containing DMSO, no compound). The compounds were robotically dispensed directly into assay plates (1×=46 nL) using a Hummingbird capillary liquid handling instrument (Digilab). Following compound dispense, protein and dye in buffer was added to achieve the final assay volume of 3 μL, followed by 1 μL of silicone oil.

| SMILES | IC50 (full-length human RORγt) [nM] | inhibition at 6 µM (full-length human RORγt) [%] | Kd [1] [nM] |
| --- | --- | --- | --- |
| C[C@H](NS(=O)(=O)c1ccc(-c2sc(-c3nnc(C(C)(C)O)o3)nc2C(=O)N2CCC(F)(F)C2)c(Cl)c1Cl)C(F)(F)F [Example 6/2, (S)-2,3-Dichloro-4-(4-(3,3-difluoropyrrolidine-1-carbonyl)-2-(5-(2-hydroxypropan-2-yl)-1,3,4-oxadiazol-2-yl)thiazol-5-yl)-N-(1,1,1-trifluoropropan-2-yl)benzenesulfonamide] | 38 | 108 | 7.6 |
| C[C@H](NS(=O)(=O)c1ccc(-c2sc(-c3nnc(C(C)(C)O)o3)nc2C(=O)N2CC(F)(F)C[C@@H]2C)c(C(F)F)c1F)C(F)(F)F [Example 6/4, 4-(4-((S)-4,4-Difluoro-2-methylpyrrolidine-1-carbonyl)-2-(5-(2-hydroxypropan-2-yl)-1,3,4-oxadiazol-2-yl)thiazol-5-yl)-3-(difluoromethyl)-2-fluoro-N—((S)-1,1,1-trifluoropropan-2-yl)benzenesulfonamide] | 82 | 108 | 6.8 |
| C[C@H](NS(=O)(=O)c1ccc(-c2sc(-c3nnc(C(C)(C)O)o3)nc2C(=O)N2CC(F)(F)C[C@@H]2C)c(Cl)c1Cl)C(F)(F)F [Example 6/5, 2,3-Dichloro-4-(4-((S)-4,4-difluoro-2-methylpyrrolidine-1-carbonyl)-2-(5-(2-hydroxypropan-2-yl)-1,3,4-oxadiazol-2-yl)thiazol-5-yl)-N—((S)-1,1,1-trifluoropropan-2-yl)benzenesulfonamide] | 23 | 103 | 0.6 |
| CCN(C(=O)c1nc(-c2nnc(C(C)(C)O)o2)sc1-c1ccc(S(=O)(=O)N[C@@H](C)C(F)(F)F)c(Cl)c1Cl)C(C)C [Example 6/7, (S)-5-(2,3-Dichloro-4-(N-(1,1,1-trifluoropropan-2-yl)sulfamoyl)phenyl)-N-ethyl-2-(5-(2-hydroxypropan-2-yl)-1,3,4-oxadiazol-2-yl)-N-isopropylthiazole-4-carboxamide] | 38 | 113 | 1.7 |
| CCCN(CC)C(=O)c1nc(-c2nnc(C(C)(C)O)o2)sc1-c1ccc(S(=O)(=O)N[C@@H](C)C(F)(F)F)c(Cl)c1Cl [Example 6/8, (S)-5-(2,3-Dichloro-4-(N-(1,1,1-trifluoropropan-2-yl)sulfamoyl)phenyl)-N-ethyl-2-(5-(2-hydroxypropan-2-yl)-1,3,4-oxadiazol-2-yl)-N-propylthiazole-4-carboxamide] | 30 | 108 | 4.5 |
| CC[C@H](NS(=O)(=O)c1ccc(-c2sc(-c3nnc(C(C)(C)O)o3)nc2C(=O)N2CCC(F)CC2)c(Cl)c1)C(F)(F)F [Example 6/11, (S)-3-Chloro-4-(4-(4-fluoropiperidine-1-carbonyl)-2-(5-(2-hydroxypropan-2-yl)-1,3,4-oxadiazol-2-yl)thiazol-5-yl)-N-(1,1,1-trifluorobutan-2-yl)benzenesulfonamide] | 69 | 104 | 9.3 |
| CC[C@H](NS(=O)(=O)c1ccc(-c2sc(-c3nnc(C(C)(C)O)o3)nc2C(=O)N2CC(F)(F)C2)c(Cl)c1)C(F)(F)F [Example 6/13, (S)-3-Chloro-4-(4-(3,3-difluoroazetidine-1-carbonyl)-2-(5-(2-hydroxypropan-2-yl)-1,3,4-oxadiazol-2-yl)thiazol-5-yl)-N-(1,1,1-trifluorobutan-2-yl)benzenesulfonamide] | 1100 | 90 | 590 |

The remaining compounds from weak to strong by IC50 (full-length human RORγt), led by results:

| IC50 (full-length human RORγt) [nM] | inhibition at 6 µM (full-length human RORγt) [%] | Kd [1] [nM] | SMILES |
| --- | --- | --- | --- |
| 210 | 101 | 45 | C[C@H](NC(=O)c1cc(-c2sc(-c3nnc(C(C)(C)O)o3)nc2C(=O)N2CCC(F)CC2)cc(C2(C)CC2)c1)C(F)(F)F [Example 6/10, (S)-3-(4-(4-Fluoropiperidine-1-carbonyl)-2-(5-(2-hydroxypropan-2-yl)-1,3,4-oxadiazol-2-yl)thiazol-5-yl)-5-(1-methylcyclopropyl)-N-(1,1,1-trifluoropropan-2-yl)benzamide] |
| 73 | 105 | 3.3 | C[C@H](NS(=O)(=O)c1ccc(-c2sc(-c3nnc(C(C)(C)O)o3)nc2C(=O)N2CCC(F)(F)CC2)c(C(F)F)c1Cl)C(F)(F)F [Example 6/14, (S)-2-Chloro-3-(difluoromethyl)-4-(4-(4,4-difluoropiperidine-1-carbonyl)-2-(5-(2-hydroxypropan-2-yl)-1,3,4-oxadiazol-2-yl)thiazol-5-yl)-N-(1,1,1-trifluoropropan-2-yl)benzenesulfonamide] |
| 72 | 110 | 16 | CCCN(C)C(=O)c1nc(-c2nnc(C(C)(C)O)o2)sc1-c1ccc(S(=O)(=O)N[C@@H](C)C(F)(F)F)c(Cl)c1Cl [Example 6/6, (S)-5-(2,3-Dichloro-4-(N-(1,1,1-trifluoropropan-2-yl)sulfamoyl)phenyl)-2-(5-(2-hydroxypropan-2-yl)-1,3,4-oxadiazol-2-yl)-N-methyl-N-propylthiazole-4-carboxamide] |
| 55 | 103 | 10 | CC[C@H](NS(=O)(=O)c1ccc(-c2sc(-c3nnc(C(C)(C)O)o3)nc2C(=O)N2CCC(F)(F)CC2)c(Cl)c1)C(F)(F)F [Example 6/12, (S)-3-Chloro-4-(4-(4,4-difluoropiperidine-1-carbonyl)-2-(5-(2-hydroxypropan-2-yl)-1,3,4-oxadiazol-2-yl)thiazol-5-yl)-N-(1,1,1-trifluorobutan-2-yl)benzenesulfonamide] |
| 38 | 104 | 0.47 | CC[C@H](NS(=O)(=O)c1ccc(-c2sc(-c3nnc(C(C)(C)O)o3)nc2C(=O)N2CCC(F)(F)CC2)c(F)c1C(F)F)C(F)(F)F [Example 6/16, (S)-2-(Difluoromethyl)-4-(4-(4,4-difluoropiperidine-1-carbonyl)-2-(5-(2-hydroxypropan-2-yl)-1,3,4-oxadiazol-2-yl)thiazol-5-yl)-3-fluoro-N-(1,1,1-trifluorobutan-2-yl)benzenesulfonamide] |
| 33 | 107 | 0.89 | CC[C@H](NS(=O)(=O)c1ccc(-c2sc(-c3nnc(C(C)(C)O)o3)nc2C(=O)N2CCC(F)(F)CC2)c(Cl)c1F)C(F)(F)F [Example 6/15, (S)-3-Chloro-4-(4-(4,4-difluoropiperidine-1-carbonyl)-2-(5-(2-hydroxypropan-2-yl)-1,3,4-oxadiazol-2-yl)thiazol-5-yl)-2-fluoro-N-(1,1,1-trifluorobutan-2-yl)benzenesulfonamide] |
| 27 | 110 | 1.7 | CC[C@H](NS(=O)(=O)c1ccc(-c2sc(-c3nnc(C(C)(C)O)o3)nc2C(=O)N2CCC(F)(F)CC2)c(C(F)F)c1F)C(F)(F)F [Example 6/3, (S)-3-(Difluoromethyl)-4-(4-(4,4-difluoropiperidine-1-carbonyl)-2-(5-(2-hydroxypropan-2-yl)-1,3,4-oxadiazol-2-yl)thiazol-5-yl)-2-fluoro-N-(1,1,1-trifluorobutan-2-yl)benzenesulfonamide] |
